Series [1] is described as follows: Sensory evaluation of sweetness potency relative to sugar. As to conditions: for Sweetnes Potency: Table 1, compared with 4% aqueous sucrose solution; for Sweetness Potency (sugar=1): sensory evaluation.
The nature of series [2]: Stability (half-life) heated to 70° C. in a phosphate buffer (pH=3). The series is classed as physicochemical.

From patent US5795612A, “Aspartyldipeptideamine derivatives and sweetner” (Ajinomoto Co., Inc., priority 1995, dated 1998) come the findings set out here.

Residues, ends and D or L forms follow the SMILES beside them.

Take `COC[C@H](NC(=O)[C@H](NC(=O)[C@@H](N)CC(=O)O)C(C)C)c1ccc(O)cc1` [Example 4, α-L-aspartyl-D-valine (R)-α-methoxymethyl-p-hydroxybenzylamide]: in series [1], the “Sweetnes Potency” value was determined as 1250 and the “Sweetness Potency (sugar=1)” value is 1250.

Consider `CC[C@H](NC(=O)[C@H](NC(=O)[C@@H](N)CC(=O)O)C(C)C)c1ccc(O)cc1` [Example 3, α-L-aspartyl-D-valine (S)-α-ethyl-p-hydroxybenzylamide], for which, in series [1], the “Sweetnes Potency” value is reported as 1500 and the “Sweetness Potency (sugar=1)” value is 1500.

Take `COCC(NC(=O)[C@H](NC(=O)[C@@H](N)CC(=O)O)C(C)C)c1ccco1` (mixture of isomers) [Example 9, α-L-aspartyl-D-valine (RS)-α-furyl-β-methoxyethylamide]: in series [1], the “Sweetnes Potency” value was 200 and the “Sweetness Potency (sugar=1)” value was “Approximately 200”.

In the case of `CC[C@H](NC(=O)[C@H](NC(=O)[C@@H](N)CC(=O)O)C(C)C)c1ccncc1` [Example 7, α-L-aspartyl-D-valine (S)-α-4-pyridylpropylamide], in series [1], the “Sweetnes Potency” value was 300 and the “Sweetness Potency (sugar=1)” value was “Approximately 300”.

Turning to `COC(=O)[C@H](Cc1ccccc1)NC(=O)[C@@H](N)CC(=O)O` [aspartame] (H-Asp-Phe-OMe), the half-life result in series [2] is listed as “approximately 1 days”.

For `CC[C@@H](NC(=O)[C@@H](N)CC(=O)O)C(=O)N[C@@H](COC)c1ccc(O)cc1` [Example 2, α-L-aspartyl-D-α-aminobutyric acid (R)-α-methoxymethyl-p-hydroxybenzylamide], in series [1], the “Sweetnes Potency” value stood at 1500 and the “Sweetness Potency (sugar=1)” value was 1500.

For the molecule `COC[C@H](NC(=O)[C@H](NC(=O)[C@@H](N)CC(=O)O)C(C)C)c1ccc(OC)cc1` [Example 8, α-L-aspartyl-D-valine (R)-α-methoxymethyl-p-methoxybenzylamide], in series [1], the “Sweetnes Potency” value worked out at 250 and the “Sweetness Potency (sugar=1)” value is listed as “Approximately 250”.

Regarding `CC[C@H](NC(=O)[C@H](NC(=O)[C@@H](N)CC(=O)O)C(C)C)c1ccc(Cl)cc1` [Example 6, α-L-aspartyl-D-valine (S)-α-ethyl-p-chlorobenzylamide], in series [1], the “Sweetnes Potency” value was found to be 1250 and the “Sweetness Potency (sugar=1)” value worked out at 1250.

In the case of `CC(C)[C@@H](NC(=O)[C@@H](N)CC(=O)O)C(=O)N[C@@H](C)c1ccc(O)cc1` [Example 5, α-L-aspartyl-D-valine (S)-α-methyl-p-hydroxybenzylamide], in series [1], the “Sweetnes Potency” value came to 1000 and the “Sweetness Potency (sugar=1)” value was 1000.

In the case of `CC[C@H](NC(=O)[C@@H](CC)NC(=O)[C@@H](N)CC(=O)O)c1ccc(O)cc1` [Example 1, α-L-aspartyl-D-α-aminobutyric acid (S)-α-ethyl-p-hydroxybenzylamide], in series [1], the “Sweetnes Potency” value is 2000 and the “Sweetness Potency (sugar=1)” value was 2000.
